Legend:
KinL = biological target: T1, KinL (Streptomyces murayamaensis, UniProt A0A385LSP3); assay: LC-HRMS of culture supernatant of E. coli expressing KinL; format: cell-based; conditions: 1 mM acetylhydrazine, 1 mM glutamic acid, 15 °C overnight; empty-vector control
T1 construct: pET28a in live E. coli BL21(DE3), not purified
T1 sequence (A0A385LSP3 1-500): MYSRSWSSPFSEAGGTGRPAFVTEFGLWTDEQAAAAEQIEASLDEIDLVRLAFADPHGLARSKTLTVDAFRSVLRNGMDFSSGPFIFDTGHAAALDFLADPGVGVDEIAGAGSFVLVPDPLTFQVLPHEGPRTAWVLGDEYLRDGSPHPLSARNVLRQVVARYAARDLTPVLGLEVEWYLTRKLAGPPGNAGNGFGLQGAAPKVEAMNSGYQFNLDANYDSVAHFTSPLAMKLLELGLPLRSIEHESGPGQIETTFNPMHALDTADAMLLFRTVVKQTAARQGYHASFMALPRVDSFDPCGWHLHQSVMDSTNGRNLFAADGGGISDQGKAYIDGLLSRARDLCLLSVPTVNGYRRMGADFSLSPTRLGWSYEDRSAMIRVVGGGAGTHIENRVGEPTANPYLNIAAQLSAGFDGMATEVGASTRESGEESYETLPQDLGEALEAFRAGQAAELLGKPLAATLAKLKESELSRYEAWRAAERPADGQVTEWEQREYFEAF

FzmA = conditions: 21 µM enzyme, 5 mM substrate, 5 mM arginine, 6 mM MgCl2, 6 mM ATP, 50 mM NaH2PO4 pH 7.7, 21 h; hydrolysis to glutamic acid
FzmA, sequence (U5YQM4 entry or part of it): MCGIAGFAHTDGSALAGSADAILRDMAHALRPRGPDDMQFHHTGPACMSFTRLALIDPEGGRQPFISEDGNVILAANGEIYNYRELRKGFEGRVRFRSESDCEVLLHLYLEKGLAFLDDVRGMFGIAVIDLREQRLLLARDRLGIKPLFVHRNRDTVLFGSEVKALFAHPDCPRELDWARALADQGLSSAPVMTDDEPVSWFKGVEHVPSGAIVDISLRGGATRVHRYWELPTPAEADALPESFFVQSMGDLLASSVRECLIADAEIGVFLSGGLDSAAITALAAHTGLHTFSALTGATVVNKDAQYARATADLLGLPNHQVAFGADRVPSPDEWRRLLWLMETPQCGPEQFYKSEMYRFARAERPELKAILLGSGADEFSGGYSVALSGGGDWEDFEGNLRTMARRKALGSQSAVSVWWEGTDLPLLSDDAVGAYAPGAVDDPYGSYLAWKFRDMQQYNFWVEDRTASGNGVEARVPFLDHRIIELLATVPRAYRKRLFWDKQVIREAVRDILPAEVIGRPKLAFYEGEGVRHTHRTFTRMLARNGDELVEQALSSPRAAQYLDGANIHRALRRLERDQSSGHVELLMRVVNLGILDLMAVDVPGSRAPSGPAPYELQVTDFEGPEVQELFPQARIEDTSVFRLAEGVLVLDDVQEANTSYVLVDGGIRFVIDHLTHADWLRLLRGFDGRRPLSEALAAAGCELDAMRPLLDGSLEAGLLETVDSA

Compound	LC-HRMS of culture supernatant of E. coli expressing KinL (KinL)	LC-MS after Fmoc-Cl derivatization (FzmA)
CC(=O)NN [acetylhydrazine]	observed in culture supernatants only when KinL was expressed and acetylhydrazine was present	
NNC(=O)CC[C@H](N)C(=O)O [compound 6, glutamylhydrazine]		FzmA clearly has the ability to liberate hydrazine from glutamylhydrazine

— publication PMC6133997, “Glutamic acid is a carrier for hydrazine during the biosyntheses of fosfazinomycin and kinamycin” (Nature Communications, 2018)
